Test results: patent US8445409B2, “Use of 5-benzyloxymethyl-1,2-isoxazoline derivatives as a herbicide” (Moghu Research Center Ltd., priority 2007, dated 2013)

What was measured:
Fall panicum = experiment: Upland pot test, pre-/post-emergence spray, visual rating; assay type: in vivo, fall panicum (PANDI); conditions: 2 weeks after spray, 0-10 scale (10=completely killed)
Excerpt: (§1) To a rectangular plastic pot having a surface area of 300 cm^2, mixed soils including blend bed soil (Boonong, Horticultural Bed Soil No. 3) and sandy loam soil were filled (mixing ratio, 1:1). Seeds of the eight different types of weeds including gramineous weed such as barnyardgrass, large crabgrass, green foxtail, fall panicum, and broadleaf weed such as common cocklebur, velvetleaf, Indian joint-vetch, and morningglory were sown. To the other pot containing the same soil mixture, seeds of the five different types of crops including corn, soybean, cotton, wheat and rice were sown. Pots were kept in a greenhouse of which temperature was maintained at 25˜30° C. (day) or 15˜25° C. (night), and regularly watered.
(§2) After fourteen days and when the crops and the weeds reached their three-leaf stage, the other set of a crop pot and a weed pot were prepared by the same method as described above. Then, “test substance” was sprayed thereto. In this case, spray treatment to the plants after they have grown for two weeks corresponded to post-emergence treatment while spray treatment to the seeds right after the sowing corresponded to pre-emergence treatment. Spray was carried out by using a track sprayer (R&D Sprayer, USA) equipped with a Teejet 8002 nozzle (Spraying Systems Co., USA). Spray volume was adjusted to 300 L/ha. The spray solution was prepared by dissolving the “test substance” in acetone and adding the same volume of 0.2% (v/v) Tween 20 aqueous solution. Dosage of the test substance was 500, 250, 125, 62.5 or 31.3 g/ha. Two weeks after the spray of the test substance, efficacy and phytotoxic effect to the crops and the weeds were visually measured based on a 0 to 10 scale (0: no efficacy, 10: completely killed).

Rice = experiment: as above; assay type: in vivo, rice (ORYSA); conditions: for Visual measurement: Crops, Rice: 2 weeks after spray, 0-10 scale (10=completely killed)
Excerpt: as §1, §2

Indian joint-vetch = experiment: as above; assay type: in vivo, Indian joint-vetch (AESIN); conditions: 2 weeks after spray, 0-10 scale (10=completely killed)
Excerpt: as §1, §2

Foxtail = experiment: as above; assay type: in vivo, green foxtail (SETVI); conditions: 2 weeks after spray, 0-10 scale (10=completely killed)
Excerpt: as §1, §2

Wheat = experiment: as above; assay type: in vivo, wheat (TRIAZ); conditions: for Visual measurement: Crops, Wheat: 2 weeks after spray, 0-10 scale (10=completely killed)
Excerpt: as §1, §2

Perennial ryegrass = experiment: Turfgrass safety test (sod mat pots), visual phytotoxicity; assay type: in vivo; conditions: in vivo
Excerpt: (§3) Commercially available sod mats of zoysiagrass and bentgrass, Kentucky bluegrass, and perennial ryegrass were purchased. After cutting each turf sod mat in a size of 10 cm×20 cm, it was transplanted to a rectangular plastic pot having a surface area of 300 cm^2 wherein mixed soils including blend of a bed soil (Boonong, Horticultural Nursery Soil No. 3) and sandy loam soil were filled (mixing ratio, 1:1). After transplanting, the grass was mowed (0.5˜1.0 cm in height) once a week, and kept for one month in a greenhouse maintained at 25˜30° C. (day) or 15˜25° C. (night), then the test substance of the present invention was applied at dosage of 4, 2, 1 and 0.5 kg/ha. As a reference, Dithiopyr (32% EC, manufactured by Dongbu Hannong Chemical Company, KOREA) was applied at the recommended rate of 0.48 kg/ha, or twice or quadruple amount thereof, i.e., 0.96 and 1.92 kg/ha, respectively. Spray was made by a track sprayer equipped with a Teejet 8002 nozzle. Spray volume was adjusted to 2,000 L/ha, which was a typical value for an Asian (Korea and Japan) golf course. The spray solution was prepared by dissolving the “test substance” in acetone and adding the same volume of 0.2% (v/v) Tween 20 aqueous solution. Two, four or six weeks after the spray of the test substance, phytotoxicity to the turfgrass were visually evaluated based on 0 to 10 scale (0: no phytotoxic effect, 10: completely killed). The test was conducted in a randomized block design with a three replicates and the results were summarized in the following Table 2 is an average value of the replicates.

Bentgrass = experiment: as above; assay type: in vivo; conditions: in vivo
Excerpt: as §3

Kentucky bluegrass = experiment: as above; assay type: in vivo; conditions: in vivo
Excerpt: as §3

Barnyardgrass = experiment: Upland pot test, pre-/post-emergence spray, visual rating; assay type: in vivo, barnyardgrass (ECHCG); conditions: 2 weeks after spray, 0-10 scale (10=completely killed)
Excerpt: as §1, §2

[1] = post-emergence foliar spray at three leaf stage, 31.2 g/ha
[2] = post-emergence foliar spray at three leaf stage, 62.5 g/ha
[3] = post-emergence foliar spray at three leaf stage, 125 g/ha
[4] = post-emergence foliar spray at three leaf stage, 250 g/ha
[5] = post-emergence foliar spray at three leaf stage, 500 g/ha
[6] = pre-emergence soil treatment, 31.2 g/ha
[7] = pre-emergence soil treatment, 62.5 g/ha
[8] = pre-emergence soil treatment, 125 g/ha
[9] = pre-emergence soil treatment, 250 g/ha
[10] = pre-emergence soil treatment, 500 g/ha

Cc1ccsc1C1=NOC(C)(COCc2c(F)cccc2F)C1 (centres unmarked) [test substance, 5-(2,6-difluorobenzyl)oxymethyl-5-methyl-3-(4-methylthiophen-5-yl)-1,2-isoxazoline]
6: Visual measurement: Gramineous weed, Fall panicum (Fall panicum; [4])
5: Visual measurement: Gramineous weed, Fall panicum (Fall panicum; [6]) | Visual measurement: Gramineous weed, Foxtail (Foxtail; [4])
2.7: Phytotoxic effect, visual assessment: Perennial ryegrass Week 4 (Perennial ryegrass)
safe: Safety to rice (in words) (Rice; post-emergence treatment) | Safety to wheat (in words) (Wheat; post-emergence treatment) | Safety to perennial ryegrass (in words) (Perennial ryegrass) | Safety to Kentucky bluegrass (in words) (Kentucky bluegrass)
2: Visual measurement: Broadleaf weed, Indian joint-vetch (Indian joint-vetch; [3]) | Visual measurement: Gramineous weed, Foxtail (Foxtail; [3]) | Visual measurement: Gramineous weed, Barnyardgrass (Barnyardgrass; [2]) | Visual measurement: Gramineous weed, Barnyardgrass (Barnyardgrass; [6])
9: Visual measurement: Gramineous weed, Fall panicum (Fall panicum; [8]) | Visual measurement: Gramineous weed, Fall panicum (Fall panicum; [9]) | Visual measurement: Gramineous weed, Foxtail (Foxtail; [5]) | Visual measurement: Gramineous weed, Foxtail (Foxtail; [8]) | Visual measurement: Gramineous weed, Foxtail (Foxtail; [9]) | Visual measurement: Gramineous weed, Barnyardgrass (Barnyardgrass; [5])
2.0: Phytotoxic effect, visual assessment: Perennial ryegrass Week 6 (Perennial ryegrass)
2.3: Phytotoxic effect, visual assessment: Bentgrass Week 2 (Bentgrass)
7: Visual measurement: Gramineous weed, Barnyardgrass (Barnyardgrass; [4])
1.0: Phytotoxic effect, visual assessment: Kentucky bluegrass Week 6 (Kentucky bluegrass)
0.0: Phytotoxic effect, visual assessment: Kentucky bluegrass Week 6 (Kentucky bluegrass; Kentucky bluegrass, 6 weeks)
0: Visual measurement: Gramineous weed, Fall panicum (Fall panicum; [1]) | Visual measurement: Crops, Rice (Rice; [1]) | Visual measurement: Crops, Rice (Rice; [2]) | Visual measurement: Crops, Rice (Rice; [3]) | Visual measurement: Crops, Rice (Rice; [4]) | Visual measurement: Crops, Rice (Rice; [5]) | Visual measurement: Crops, Rice (Rice; [6]) | Visual measurement: Crops, Rice (Rice; [7]) | Visual measurement: Crops, Rice (Rice; [8]) | Visual measurement: Crops, Rice (Rice; [9]) | Visual measurement: Crops, Rice (Rice; [10]) | Visual measurement: Broadleaf weed, Indian joint-vetch (Indian joint-vetch; [1]) | Visual measurement: Broadleaf weed, Indian joint-vetch (Indian joint-vetch; [6]) | Visual measurement: Broadleaf weed, Indian joint-vetch (Indian joint-vetch; [7]) | Visual measurement: Broadleaf weed, Indian joint-vetch (Indian joint-vetch; [8]) | Visual measurement: Broadleaf weed, Indian joint-vetch (Indian joint-vetch; [9]) | Visual measurement: Broadleaf weed, Indian joint-vetch (Indian joint-vetch; [10]) | Visual measurement: Gramineous weed, Foxtail (Foxtail; [1]) | Visual measurement: Crops, Wheat (Wheat; [1]) | Visual measurement: Crops, Wheat (Wheat; [2]) | Visual measurement: Crops, Wheat (Wheat; [3]) | Visual measurement: Crops, Wheat (Wheat; [4]) | Visual measurement: Crops, Wheat (Wheat; [5]) | Visual measurement: Crops, Wheat (Wheat; [6]) | Visual measurement: Crops, Wheat (Wheat; [7]) | Visual measurement: Crops, Wheat (Wheat; [8]) | Visual measurement: Crops, Wheat (Wheat; [9]) | Visual measurement: Crops, Wheat (Wheat; [10]) | Visual measurement: Gramineous weed, Barnyardgrass (Barnyardgrass; [1])
10: Visual measurement: Gramineous weed, Fall panicum (Fall panicum; [10]) | Visual measurement: Gramineous weed, Foxtail (Foxtail; [10]) | Visual measurement: Gramineous weed, Barnyardgrass (Barnyardgrass; [8]) | Visual measurement: Gramineous weed, Barnyardgrass (Barnyardgrass; [9]) | Visual measurement: Gramineous weed, Barnyardgrass (Barnyardgrass; [10])
1: Visual measurement: Gramineous weed, Fall panicum (Fall panicum; [2]) | Visual measurement: Broadleaf weed, Indian joint-vetch (Indian joint-vetch; [2]) | Visual measurement: Gramineous weed, Foxtail (Foxtail; [2]) | Visual measurement: Gramineous weed, Foxtail (Foxtail; [6])
3.0: Phytotoxic effect, visual assessment: Perennial ryegrass Week 2 (Perennial ryegrass) | Phytotoxic effect, visual assessment: Bentgrass Week 4 (Bentgrass)
3: Visual measurement: Gramineous weed, Fall panicum (Fall panicum; [3]) | Visual measurement: Broadleaf weed, Indian joint-vetch (Indian joint-vetch; [4]) | Visual measurement: Gramineous weed, Foxtail (Foxtail; [7]) | Visual measurement: Gramineous weed, Barnyardgrass (Barnyardgrass; [3])
8: Visual measurement: Gramineous weed, Fall panicum (Fall panicum; [5]) | Visual measurement: Gramineous weed, Fall panicum (Fall panicum; [7])
4: Visual measurement: Broadleaf weed, Indian joint-vetch (Indian joint-vetch; [5]) | Visual measurement: Gramineous weed, Barnyardgrass (Barnyardgrass; [7])
